Entries after “also recorded” stand apart in the source; their conditions may differ.
Molecular target: M. ramosa APAH (Mycoplana ramosa, UniProt Q48935)
Assay: Fluorimetric APAH inhibition assay
Type: biochemical
Details: for Inhibitory potency against APAH, IC50 range in words: qualitative range stated in text

Chain of M. ramosa APAH (Q48935 whole entry): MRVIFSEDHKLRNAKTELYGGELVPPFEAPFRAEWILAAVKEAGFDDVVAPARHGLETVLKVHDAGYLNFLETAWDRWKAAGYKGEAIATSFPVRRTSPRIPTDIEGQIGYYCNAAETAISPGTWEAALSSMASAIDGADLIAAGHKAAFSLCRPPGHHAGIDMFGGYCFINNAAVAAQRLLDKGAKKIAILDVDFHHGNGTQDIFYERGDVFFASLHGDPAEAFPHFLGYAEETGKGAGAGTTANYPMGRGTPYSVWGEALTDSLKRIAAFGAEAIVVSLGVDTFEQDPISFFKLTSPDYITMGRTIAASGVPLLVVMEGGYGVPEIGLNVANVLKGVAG

SMILES: Cl.Cl.NCCCNCCCCCC(=O)O [I, 6-[(3-aminopropyl)amino]hexanoic acid dihydrochloride]
- Inhibitory potency against APAH, IC50 range in words: millimolar range

SMILES: CC(=O)CCCCCNCCCN.Cl.Cl [II, 7-[(3-aminopropyl)amino]heptan-2-one dihydrochloride]
- Inhibitory potency against APAH, IC50 range in words: mid-micromolar range

SMILES: Cl.Cl.NCCCNCCCCCC(=O)NO [III, 6-[(3-aminopropyl)amino]-N-hydroxyhexanamide dihydrochloride]
- Inhibitory potency against APAH, IC50 range in words: nanomolar range; also recorded: nanomolar inhibitory potency

SMILES: Cl.Cl.NCCCNCCCCCC(=O)C(F)(F)F [IV, 7-[(3-aminopropyl)amino]-1,1,1-trifluoroheptan-2-one dihydrochloride]
- IC50: 38 µM
- Inhibitory potency against APAH, IC50 range in words: nanomolar range; also recorded: nanomolar inhibitory potency

SMILES: CS(=O)(=O)CCCCCNCCCN.Cl.Cl [IX, N^1-[5-(methylsulfonyl)pentyl]propane-1,3-diamine dihydrochloride]
- Inhibitory potency against APAH, IC50 range in words: millimolar range

SMILES: CC(=O)SCC(=O)CCCCCNCCCN.Cl.Cl [V, 7-{[(3-aminopropyl)amino]-2-oxoheptyl} thioacetate dihydrochloride]
- IC50: 4000 µM
- Inhibitory potency against APAH, IC50 range in words: mid-micromolar range

SMILES: COCC(=O)CCCCCNCCCN.Cl.Cl [VI, 7-[(3-aminopropyl)amino]-1-methoxyheptan-2-one dihydrochloride]
- Inhibitory potency against APAH, IC50 range in words: mid-micromolar range

SMILES: CC(=O)SCCCCCNCCCN.Cl.Cl [VII, S-{5-[(3-aminopropyl)amino]pentyl} thioacetate dihydrochloride]
- Inhibitory potency against APAH, IC50 range in words: millimolar range

SMILES: Cl.Cl.NCCCNCCCCCS [VIII, 5-[(3-aminopropyl)amino]pentane-1-thiol dihydrochloride]
- Inhibitory potency against APAH, IC50 range in words: mid-micromolar range

SMILES: Cl.Cl.NCCCNCCCCCB(O)O [X, 5-[(3-aminopropyl)amino]pentylboronic acid dihydrochloride]
- Inhibitory potency against APAH, IC50 range in words: mid-micromolar range
